These results are taken from patent publication US12005056B2, “Centrally-active ghrelin agonist and medical uses thereof” (Helsinn Healthcare SA, priority 2018, dated 2024).

Structures are written as SMILES. A value given as a limit tells only on which side of the number the result lay.

The nature of data set [1]: Comparative pharmacokinetics versus reference compounds, dog.
Data set [2] in a line: Comparative pharmacokinetics versus reference compounds, rat.
In data set [3] the test system is oxaliplatin-treated Balb/C mice. Particulars: oxaliplatin 6 mg/kg i.p. twice weekly for 4 weeks.
Data set [4] in a line: Water solubility testing.
[5] abbreviates: Dog, IV, dosing level 1 mg/kg (level not given for Reference 2).
The mark [6] stands for this setting: Dog, PO, dosing level 2 mg/kg (level not given for Reference 2).
Setting [7] is: Rat, 2 hours after intravenous administration.
Where [8] appears, read: Rat, IV, dosing level 3 mg/kg (level not given for Reference 2).
Where [9] appears, read: Rat, PO, dosing level 3 mg/kg (level not given for Reference 2).

In general, Cmax refers to the maximum level reached in the sampled fluid or tissue. The term half-life denotes the time needed for the level to fall by half in the phase considered. Low readings indicate fast loss, high ones slow loss. The term Vd/F denotes the volume of distribution divided by bioavailability. The term Kp denotes the ratio of the level in a tissue or fluid to that in plasma or blood. As to `COc1ccc([C@H](C)NC(=O)N(O)C2CCN(C)CC2)c2ccccc12` [Reference 2], in data set [1] (setting [5]), the “AUC (0-t)” value was 14810.5 ng·h/mL and the CLz/F amounted to 0.04 L/h/kg. In data set [1] (setting [6]), the “AUC (0-t)” value was 28288.2 ng·h/mL, the CLz/F was 0.06 L/h/kg and the F is 95.5%. In data set [1] (dog, in vivo, iv, 1 mg/kg), the Cmax stood at 1520 ng/mL and the half-life is 1330 min. Further, in data set [1] (dog, in vivo, po, 2 mg/kg), the peak level (Cmax) was 2040 ng/mL, the Vd/F is 0.9 L/kg, the half-life is 708 min and the tmax came out at 40.2 min. Besides, in data set [2] (setting [7]), the “2 hr brain concentration” value is recorded as 79.6 ng · g and the “2 hr plasma concentration” value was 790.3 ng/mL. In data set [2] (setting [8]), the “AUC (0-t)” value was found to be 8412.7 ng·h/mL and the CLz/F was determined as 0.3 L/h/kg. In addition, in data set [2] (setting [9]), the “AUC (0-t)” value amounted to 6139.8 ng·h/mL, the CLz/F amounted to 0.4 L/h/kg and the F came out at 73.0%. Also, in data set [2] (rat, brain/plasma, iv), the concentration ratio (Kp) at 2 h was 0.1. In data set [2] (rat, plasma, iv, 3 mg/kg), the concentration peaked (Cmax) at 1220 ng/mL and the half-life was 348 min. In data set [2] (rat, plasma, po, 3 mg/kg), this molecule gave a maximum concentration (Cmax) of 481 ng/mL, a Vd/F of 3.3 L/kg, a half-life of 366 min and a tmax of 6 h.
Regarding `O=C1[O][Pt]2([NH][C@@H]3CCCC[C@H]3[NH]2)[O]C1=O` [Oxaliplatin, reference compound], in data set [3], the “decrease in caudal NCV vs. vehicle-treated mice” value is 8±1.1% and the “reduction in IENFD in the footpads vs. vehicle-treated mice” value was −31.7±3.5%. Besides, the “decrease in digital potential amplitude” value in data set [3] (not statistically significant) is 13.5+/−6.4%.
Broadly, the solubility is how much of the substance goes into solution per volume. A higher solubility goes with much dissolved substance. On to `COc1ccc(C(C)NC(=O)N(C)C2CCN(C)CC2(C)C)c(Cl)c1Cl` (centres unmarked) [free base, 3-(1-(2,3-dichloro-4-methoxyphenyl)ethyl)-1-methyl-1-(1,3,3-trimethylpiperidin-4-yl)urea], for which the solubility in data set [4] was less than 2000 µg/mL.
